{"source": "ChEMBL document CHEMBL3045592", "about": "“Studies of O,O-dimethyl α-(2,4-dichlorophenoxyacetoxy)ethylphosphonate (HW02) as a new herbicide. 1. Synthesis and herbicidal activity of HW02 and analogues as novel inhibitors of pyruvate dehydrogenase complex” (J Agric Food Chem, 2011)", "key": {"Oryza sativa [1]": {"tested_on": "Oryza sativa", "experiment": "Inhibition of PDHc in Oryza sativa (rice) shoot mitochondria assessed as decrease in rate of NADH formation using sodium pyruvate as substrate at 100 microg/g preincubated for 25 min before substrate addition measured after 1 min by spectrophotometric assay"}, "Oryza sativa [2]": {"tested_on": "Oryza sativa", "experiment": "Inhibition of PDHc in Oryza sativa (rice) shoot mitochondria assessed as decrease in rate of NADH formation using sodium pyruvate as substrate at 1000 microg/g preincubated for 25 min before substrate addition measured after 1 min by spectrophotometric assay"}, "Echinochloa crus-galli [3]": {"tested_on": "Echinochloa crus-galli", "experiment": "Post-emergence herbicidal activity against Echinochloa crus-galli (barnyard grass) assessed as growth inhibition at 300 ai g/ha after 20 days by green house test", "assay_type": "functional"}, "Echinochloa crus-galli [4]": {"tested_on": "Echinochloa crus-galli", "experiment": "Post-emergence herbicidal activity against Echinochloa crus-galli (barnyard grass) assessed as growth inhibition at 225 ai g/ha after 20 days by green house test", "assay_type": "functional"}, "Medicago sativa [5]": {"tested_on": "Medicago sativa", "experiment": "Post-emergence herbicidal activity against Medicago sativa (alfalfa) assessed as growth inhibition at 300 ai g/ha after 20 days by green house test", "assay_type": "functional"}, "Medicago sativa [6]": {"tested_on": "Medicago sativa", "experiment": "Post-emergence herbicidal activity against Medicago sativa (alfalfa) assessed as growth inhibition at 75 ai g/ha after 20 days by green house test", "assay_type": "functional"}, "Medicago sativa [7]": {"tested_on": "Medicago sativa", "experiment": "Post-emergence herbicidal activity against Medicago sativa (alfalfa) assessed as growth inhibition at 37.5 ai g/ha after 20 days by green house test", "assay_type": "functional"}, "Medicago sativa [8]": {"tested_on": "Medicago sativa", "experiment": "Post-emergence herbicidal activity against Medicago sativa (alfalfa) assessed as growth inhibition at 18.75 ai g/ha after 20 days by green house test", "assay_type": "functional"}, "Portulaca oleracea [9]": {"tested_on": "Portulaca oleracea", "experiment": "Post-emergence herbicidal activity against Portulaca oleracea assessed as growth inhibition at 450 ai g/ha after 20 days by green house test", "assay_type": "functional"}, "Portulaca oleracea [10]": {"tested_on": "Portulaca oleracea", "experiment": "Post-emergence herbicidal activity against Portulaca oleracea assessed as growth inhibition at 150 ai g/ha after 20 days by green house test", "assay_type": "functional"}, "Portulaca oleracea [11]": {"tested_on": "Portulaca oleracea", "experiment": "Post-emergence herbicidal activity against Portulaca oleracea assessed as growth inhibition at 75 ai g/ha after 20 days by green house test", "assay_type": "functional"}, "Portulaca oleracea [12]": {"tested_on": "Portulaca oleracea", "experiment": "Post-emergence herbicidal activity against Portulaca oleracea assessed as growth inhibition at 37.5 ai g/ha after 20 days by green house test", "assay_type": "functional"}, "Portulaca oleracea [13]": {"tested_on": "Portulaca oleracea", "experiment": "Post-emergence herbicidal activity against Portulaca oleracea assessed as growth inhibition at 18.75 ai g/ha after 20 days by green house test", "assay_type": "functional"}, "[14]": {"experiment": "Toxicity against Oryza sativa (rice) assessed as growth inhibition at 300 ai g/ha post-emergent application measured after 20 days by green house crop selectivity test", "assay_type": "organism-based", "details": "in vivo, read-out: GI"}, "[15]": {"experiment": "Toxicity against Zea mays Gao you 1 (maize) assessed as growth inhibition at 450 ai g/ha post-emergent application measured after 20 days by green house crop selectivity test", "assay_type": "organism-based", "details": "Gao you 1, zea mays, in vivo, read-out: GI"}, "[16]": {"experiment": "Toxicity against Zea mays Gao you 1 (maize) assessed as growth inhibition at 300 ai g/ha post-emergent application measured after 20 days by green house crop selectivity test", "assay_type": "organism-based", "details": "Gao you 1, zea mays, in vivo, read-out: GI"}, "[17]": {"experiment": "Toxicity against Zea mays Gao you 1 (maize) assessed as growth inhibition at 225 ai g/ha post-emergent application measured after 20 days by green house crop selectivity test", "assay_type": "organism-based", "details": "Gao you 1, zea mays, in vivo, read-out: GI"}, "[18]": {"experiment": "Toxicity against Zea mays Gao you 1 (maize) assessed as growth inhibition at 150 ai g/ha post-emergent application measured after 20 days by green house crop selectivity test", "assay_type": "organism-based", "details": "Gao you 1, zea mays, in vivo, read-out: GI"}, "[19]": {"experiment": "Toxicity against Triticum aestivum Yang Mai 1 (wheat) assessed as growth inhibition at 450 ai g/ha post-emergent application measured after 20 days by green house crop selectivity test", "assay_type": "organism-based", "details": "Yang Mai 1, triticum aestivum, in vivo, read-out: GI"}, "[20]": {"experiment": "Toxicity against Triticum aestivum Yang Mai 1 (wheat) assessed as growth inhibition at 300 ai g/ha post-emergent application measured after 20 days by green house crop selectivity test", "assay_type": "organism-based", "details": "Yang Mai 1, triticum aestivum, in vivo, read-out: GI"}, "Daucus carota [21]": {"tested_on": "Daucus carota", "experiment": "Post-emergence herbicidal activity against Daucus carota (carrot) assessed as growth inhibition at 450 ai g/ha after 20 days by green house test", "assay_type": "functional"}, "Cardamine hirsuta [22]": {"tested_on": "Cardamine hirsuta", "experiment": "Post-emergence herbicidal activity against Cardamine hirsuta assessed as growth inhibition at 75 ai g/ha after 20 days by green house test", "assay_type": "functional"}, "Cardamine hirsuta [23]": {"tested_on": "Cardamine hirsuta", "experiment": "Post-emergence herbicidal activity against Cardamine hirsuta assessed as growth inhibition at 37.5 ai g/ha after 20 days by green house test", "assay_type": "functional"}, "Xanthium strumarium [24]": {"tested_on": "Xanthium strumarium", "experiment": "Post-emergence herbicidal activity against Xanthium strumarium (cocklebur) assessed as growth inhibition at 450 ai g/ha after 20 days by green house test", "assay_type": "functional"}, "Xanthium strumarium [25]": {"tested_on": "Xanthium strumarium", "experiment": "Post-emergence herbicidal activity against Xanthium strumarium (cocklebur) assessed as growth inhibition at 225 ai g/ha after 20 days by green house test", "assay_type": "functional"}, "Xanthium strumarium [26]": {"tested_on": "Xanthium strumarium", "experiment": "Post-emergence herbicidal activity against Xanthium strumarium (cocklebur) assessed as growth inhibition at 37.5 ai g/ha after 20 days by green house test", "assay_type": "functional"}, "Xanthium strumarium [27]": {"tested_on": "Xanthium strumarium", "experiment": "Post-emergence herbicidal activity against Xanthium strumarium (cocklebur) assessed as growth inhibition at 18.75 ai g/ha after 20 days by green house test", "assay_type": "functional"}, "Amaranthus retroflexus [28]": {"tested_on": "Amaranthus retroflexus", "experiment": "Post-emergence herbicidal activity against Amaranthus retroflexus assessed as growth inhibition at 300 ai g/ha after 20 days by green house test", "assay_type": "functional"}, "Amaranthus retroflexus [29]": {"tested_on": "Amaranthus retroflexus", "experiment": "Post-emergence herbicidal activity against Amaranthus retroflexus assessed as growth inhibition at 225 ai g/ha after 20 days by green house test", "assay_type": "functional"}, "Amaranthus retroflexus [30]": {"tested_on": "Amaranthus retroflexus", "experiment": "Post-emergence herbicidal activity against Amaranthus retroflexus assessed as growth inhibition at 37.5 ai g/ha after 20 days by green house test", "assay_type": "functional"}, "Amaranthus retroflexus [31]": {"tested_on": "Amaranthus retroflexus", "experiment": "Post-emergence herbicidal activity against Amaranthus retroflexus assessed as growth inhibition at 18.75 ai g/ha after 20 days by green house test", "assay_type": "functional"}, "Eclipta prostrata [32]": {"tested_on": "Eclipta prostrata", "experiment": "Post-emergence herbicidal activity against Eclipta prostrata assessed as growth inhibition at 150 ai g/ha after 20 days by green house test", "assay_type": "functional"}, "Eclipta prostrata [33]": {"tested_on": "Eclipta prostrata", "experiment": "Post-emergence herbicidal activity against Eclipta prostrata assessed as growth inhibition at 75 ai g/ha after 20 days by green house test", "assay_type": "functional"}, "Daucus carota [34]": {"tested_on": "Daucus carota", "experiment": "Post-emergence herbicidal activity against Daucus carota (carrot) assessed as growth inhibition at 300 ai g/ha after 20 days by green house test", "assay_type": "functional"}, "Daucus carota [35]": {"tested_on": "Daucus carota", "experiment": "Post-emergence herbicidal activity against Daucus carota (carrot) assessed as growth inhibition at 75 ai g/ha after 20 days by green house test", "assay_type": "functional"}, "Daucus carota [36]": {"tested_on": "Daucus carota", "experiment": "Post-emergence herbicidal activity against Daucus carota (carrot) assessed as growth inhibition at 37.5 ai g/ha after 20 days by green house test", "assay_type": "functional"}, "[37]": {"tested_on": "Brassica rapa subsp. oleifera", "experiment": "Post-emergence herbicidal activity against Brassica rapa subsp. oleifera Si Yue Man assessed as growth inhibition at 450 ai g/ha after 20 days by green house test", "assay_type": "functional"}, "[38]": {"tested_on": "Brassica rapa subsp. oleifera", "experiment": "Post-emergence herbicidal activity against Brassica rapa subsp. oleifera Si Yue Man assessed as growth inhibition at 225 ai g/ha after 20 days by green house test", "assay_type": "functional"}, "Digitaria sanguinalis [39]": {"tested_on": "Digitaria sanguinalis", "experiment": "Post-emergence herbicidal activity against Digitaria sanguinalis (hairy crabgrass) assessed as growth inhibition at 300 ai g/ha after 20 days by green house test", "assay_type": "functional"}, "Digitaria sanguinalis [40]": {"tested_on": "Digitaria sanguinalis", "experiment": "Post-emergence herbicidal activity against Digitaria sanguinalis (hairy crabgrass) assessed as growth inhibition at 225 ai g/ha after 20 days by green house test", "assay_type": "functional"}}, "data": [{"compound": "COP(=O)(OC)C(C)OC(=O)COc1ccc(Cl)cc1Cl", "note": "(stereo not given) [CLACYFOS]", "values": [{"measurement": "inhibition", "setting": "Oryza sativa [1]", "value": 21.3, "unit": "%"}, {"measurement": "inhibition", "setting": "Oryza sativa [2]", "value": 55.1, "unit": "%"}, {"measurement": "growth inhibition (GI)", "setting": "Echinochloa crus-galli [3]", "value": 20, "unit": "%"}, {"measurement": "growth inhibition (GI)", "setting": "Echinochloa crus-galli [4]", "value": 10, "unit": "%"}, {"measurement": "growth inhibition (GI)", "setting": "Medicago sativa [5]", "value": 97, "unit": "%"}, {"measurement": "growth inhibition (GI)", "setting": "Medicago sativa [6]", "value": 84, "unit": "%"}, {"measurement": "growth inhibition (GI)", "setting": "Medicago sativa [7]", "value": 72, "unit": "%"}, {"measurement": "growth inhibition (GI)", "setting": "Medicago sativa [8]", "value": 60, "unit": "%"}, {"measurement": "growth inhibition (GI)", "setting": "Portulaca oleracea [9]", "value": 100, "unit": "%"}, {"measurement": "growth inhibition (GI)", "setting": "Portulaca oleracea [10]", "value": 85, "unit": "%"}, {"measurement": "growth inhibition (GI)", "setting": "Portulaca oleracea [11]", "value": 75, "unit": "%"}, {"measurement": "growth inhibition (GI)", "setting": "Portulaca oleracea [12]", "value": 65, "unit": "%"}, {"measurement": "growth inhibition (GI)", "setting": "Portulaca oleracea [13]", "value": 50, "unit": "%"}, {"measurement": "inhibition at 480 h", "setting": "[14]", "value": 0, "unit": "%"}, {"measurement": "inhibition at 480 h", "setting": "[15]", "value": 0, "unit": "%"}, {"measurement": "inhibition at 480 h", "setting": "[16]", "value": 0, "unit": "%"}, {"measurement": "inhibition at 480 h", "setting": "[17]", "value": 0, "unit": "%"}, {"measurement": "inhibition at 480 h", "setting": "[18]", "value": 0, "unit": "%"}, {"measurement": "inhibition at 480 h", "setting": "[19]", "value": 0, "unit": "%"}, {"measurement": "inhibition at 480 h", "setting": "[20]", "value": 0, "unit": "%"}, {"measurement": "growth inhibition (GI)", "setting": "Daucus carota [21]", "value": 100, "unit": "%"}, {"measurement": "growth inhibition (GI)", "setting": "Cardamine hirsuta [22]", "value": 88, "unit": "%"}, {"measurement": "growth inhibition (GI)", "setting": "Cardamine hirsuta [23]", "value": 84, "unit": "%"}, {"measurement": "growth inhibition (GI)", "setting": "Xanthium strumarium [24]", "value": 100, "unit": "%"}, {"measurement": "growth inhibition (GI)", "setting": "Xanthium strumarium [25]", "value": 95, "unit": "%"}, {"measurement": "growth inhibition (GI)", "setting": "Xanthium strumarium [26]", "value": 60, "unit": "%"}, {"measurement": "growth inhibition (GI)", "setting": "Xanthium strumarium [27]", "value": 50, "unit": "%"}, {"measurement": "growth inhibition (GI)", "setting": "Amaranthus retroflexus [28]", "value": 100, "unit": "%"}, {"measurement": "growth inhibition (GI)", "setting": "Amaranthus retroflexus [29]", "value": 100, "unit": "%"}, {"measurement": "growth inhibition (GI)", "setting": "Amaranthus retroflexus [30]", "value": 82.5, "unit": "%"}, {"measurement": "growth inhibition (GI)", "setting": "Amaranthus retroflexus [31]", "value": 65, "unit": "%"}, {"measurement": "growth inhibition (GI)", "setting": "Eclipta prostrata [32]", "value": 90, "unit": "%"}, {"measurement": "growth inhibition (GI)", "setting": "Eclipta prostrata [33]", "value": 82.5, "unit": "%"}, {"measurement": "growth inhibition (GI)", "setting": "Daucus carota [34]", "value": 100, "unit": "%"}, {"measurement": "growth inhibition (GI)", "setting": "Daucus carota [35]", "value": 90, "unit": "%"}, {"measurement": "growth inhibition (GI)", "setting": "Daucus carota [36]", "value": 85, "unit": "%"}, {"measurement": "growth inhibition (GI)", "setting": "[37]", "value": 100, "unit": "%"}, {"measurement": "growth inhibition (GI)", "setting": "[38]", "value": 100, "unit": "%"}, {"measurement": "growth inhibition (GI)", "setting": "Digitaria sanguinalis [39]", "value": 32, "unit": "%"}, {"measurement": "growth inhibition (GI)", "setting": "Digitaria sanguinalis [40]", "value": 22.5, "unit": "%"}]}]}
